These results are taken from US6395740B1, “Calcitonin mimetics” (ZymoGenetics, Inc., priority 1997, dated 2002).

For data set [1], the target named is T1, human calcitonin receptor (Homo sapiens, UniProt P30988).
T1 construct: expressed in transfected cells; host or cells: BHK (baby hamster kidney) cells, line Hollex-2 (Hollex 1 in the general description)
T1 sequence (P30988 25-474): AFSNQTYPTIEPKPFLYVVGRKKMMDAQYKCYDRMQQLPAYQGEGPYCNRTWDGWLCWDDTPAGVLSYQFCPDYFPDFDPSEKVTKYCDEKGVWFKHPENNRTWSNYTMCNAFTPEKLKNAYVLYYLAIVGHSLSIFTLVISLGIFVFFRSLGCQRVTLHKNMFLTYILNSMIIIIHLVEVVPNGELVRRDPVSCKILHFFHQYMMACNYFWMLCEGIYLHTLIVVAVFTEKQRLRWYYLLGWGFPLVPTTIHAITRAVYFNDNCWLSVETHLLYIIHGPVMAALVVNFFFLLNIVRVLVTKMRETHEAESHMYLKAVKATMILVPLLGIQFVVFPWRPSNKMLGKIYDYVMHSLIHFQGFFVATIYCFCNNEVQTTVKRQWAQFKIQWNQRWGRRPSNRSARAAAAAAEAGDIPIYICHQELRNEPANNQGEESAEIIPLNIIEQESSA
The data set is described as follows: CRE-luciferase assay for calcitonin mimetic activity. The class given is cell-based. From the text:
An alternative assay system (described in WO96/31536 which is incorporated herein in its entirety) involves selection of substances that are able to induce expression of a cyclic AMP response element (CRE)-luciferase reporter gene, as a consequence of elevated cAMP levels, in cells expressing a calcitonin receptor, but not in cells lacking calcitonin receptor expression. Such cells could include, for example, Boris/KS10-3 (expressing hamster calcitonin receptor and a CRE-luciferase reporter gene in baby hamster kidney cells (BHK 570 cells)) or Hollex 1 (expressing human calcitonin receptor and a CRE-luciferase reporter gene in BHK cells, as described in WO96/31536) or KZ10-20-48/pLJ6-4-25, which expresses the human glucagon receptor and a CRE-luciferase reporter gene in BHK cells. The human glucagon receptor is another member of the G-protein-coupled receptor family that transduces signal through adenylate cyclase-mediated elevation of cAMP.
This CRE-luciferase assay measures the end result of a multi-step signal transduction pathway triggered when a calcitonin mimetic stimulates the G-coupled calcitonin receptor. The complexity of this pathway provides multiple mechanisms for induction of luciferase transcription at points that are downstream of the calcitonin receptor, and therefore may not be calcitonin receptor-specific (e.g., forskolin's direct activation of adenylate cyclase). Any response triggered by non-specific inducers is eliminated by counter screening using the calcitonin receptor-negative cell lines described above.
Receptor-positive and -negative cell lines were maintained by serial passage in growth medium (DMEM supplemented with 10% heat-inactivated fetal calf serum (HI-FCS), 2 mM L-glutamine, 1 mM sodium pyruvate, 250 nM MTX, and 1 mg/mL G418). On the day prior to assay, cells were trypsinized, adjusted to 2×10^5 cells/mL in growth medium, plated in opaque white Dynatech Microlite microtiter tissue culture plates at 100 μL/well (2×10^4 cells), and grown overnight to confluence (37° C., 5% CO2 atmosphere)
Test substances were prepared in DMSO at 100 times the final desired assay concentration. Induction was initiated by adding 100 μL/well test substance diluted 1:100 or 1:1000 (only first round screening extracts were diluted 1:100) in assay medium (DMEM supplemented with 10% HI-FCS, 2 mM L-glutamine, 1 mM sodium pyruvate and 20 mM Hepes, pH 7.25). Controls were included on each plate: untreated wells (basal), […] forskolin, and 100 nM human calcitonin. For test substances prepared in DMSO, an equal concentration of DMSO was included in control wells (not to exceed a final assay concentration of 2% DMSO, with a preferred maximum of 1%). Plates were incubated for 3 to 8 hours (4 hours preferred) at 37° C. in an atmosphere of 5% CO2.
Following induction, luciferase activity was measured using a Promega luciferase assay kit (E1500) according to the assay kit protocol. Briefly, assay medium was removed and cells were washed once with phosphate buffered saline (PBS). After the wash, 25 μL of lysis buffer was added to each well, and the plates were incubated for 15 minutes at room temperature. Fifty microliters of Luciferase Assay Substrate (Promega, Corp.) was added to each well and the plates were transferred to a Labsystems Lumiscan microtiter luminometer. The amount of luminescence (relative light units, RLU) was determined by “Fastscan” following a 0.1 second/well integration of signal. Basal (uninduced) luciferase signal was subtracted from all measurements, and the luciferase signal induced by test samples was expressed as a percentage of the signal in the calcitonin and forskolin controls. […]

In data set [2] the test system is PTH-induced bone resorption in mouse calvariae. The data set is described as follows: Calvarial assay: inhibition of PTH-induced bone resorption (calcium release). The class given is cell-based. Particulars: 1 nM PTH 1-34, 72 hours, read-out: Release of PTH Induced Ca++ IC50. On the procedure: Calvaria from 4-day old neonatal CD-1 mice (pregnant mice received from Charles River Laboratories, Wilmington, Mass.) were trimmed with fine-tipped scissors to leave the parietal regions, including the sagittal suture. These trimmed bones were placed singly per well into 6-well cell culture cluster plates (Costar, Pleasanton, Calif.) with 1 mL/well of growth medium (DMEM, BioWhittaker, Walkersville, Md.) with 4.5 g/L glucose, 0.29 mg/mL L-glutamine, 1 mM sodium pyruvate, 15% heat-inactivated horse serum, and antibiotics (penicillin-G 50 μg/mL, streptomycin 50 μg/mL, and neomycin 100 μg/mL), and rocked gently (RedRocker™, model PR50-115V, Hoefer, San Francisco, Calif.) at 37° C. in a 5% CO2 humidified incubator for 24 hours preincubation.
Following preincubation, medium was removed and replaced with 1.5 mL/well of growth medium containing 1 nM parathyroid hormone (PTH) 1-34 (Sigma) to stimulate bone resorption. For evaluation of the ability of calcitonin mimetics to inhibit PTH induced bone resorption, mimetic compounds in DMSO were added to the growth medium at concentrations ranging from 1-400 μg/mL (final assay concentration of DMSO less than or equal to […]). In each exierimerec human calcitonin (0.02-20 nM, 0.2-2 nM preferred) was added to PTH treated bones as a positive control. […] All control wells contained a final assay concentration of DMSO equal to that present in calcitonin mimetic treated wells.
Five bones were included in each sample group. Bones were incubated for 72 hours following PTH addition to allow resorption of bone to occur. Observations were made of the general appearance, healthiness and number of cells that migrate from the calvaria during the incubation as a possible indication of possible toxicity. Calvaria to be examined histologically were transferred to glass scintillation vials containing 10 mL of 10% neutral buffered formalin. The medium was removed from the wells, and total calcium measurements were made using a Nova 7/7+7 Electrolyte Analyzer (Nova Biomedical, Waltham, Mass.) according to the manufacturer's specifications. Induction of bone resorption by PTH is seen as an increase in the concentration of calcium in the growth medium due to degradation of the bone matrix.

For data set [3] the following is noted: rats, evaluated by pQCT or histomorphometry; cited from earlier work.

pEC50: −log10 of the molar value. Values after ≈ are worked out from the molar mass of the structure shown.

On to `COc1cc(CN2CCN(Cc3ccc(OC)c(OC)c3OC)CC2)cc(I)c1O` [Compound 850-0221], for which, in data set [1], the pEC50 (in general, −log10 of the EC50, conventionally taken in molar units) was 3.54. As to `COc1cc(CN2CCN(Cc3cc(Br)ccc3O)CC2)cc(Br)c1O` [Compound 850-2346], the pEC50 in data set [1] was 3.69. Besides, in data set [2], the 50% inhibitory concentration (IC50) (as a rule, the concentration that inhibits the measured activity by half) is 25 µg/mL (≈ 51.4 µM).

Consider `COc1cc(CN2CCN(C(=O)Nc3cccc(C(F)(F)F)c3)CC2)cc(OC)c1OC` [Compound 850-0277], for which the melting point (usually the temperature of the solid-liquid transition) was 79 to 82 °C. Further, the half-maximal inhibitory concentration (IC50) in data set [2] stood at 50 µg/mL (≈ 110 µM).

Consider calcitonin, for which the “bone loss associated with combined ovariectomy and immobilization” value in data set [3] was “very effective at reducing bone loss”. Regarding `COc1ccc(CN2CCN(Cc3cc(I)c(O)c(OC)c3)CC2)cc1C` [Compound 850-0293], in data set [1], the pEC50 is 3.98 to 4.29. The IC50 in data set [2] was 25 to 50 µg/mL (≈ 51.8 to 104 µM). Taken in the same sequence, the figures for `COc1cc(CN2CCN(Cc3cc(Br)cc(Br)c3O)CC2)cc(OC)c1OC` [Compound 850-1085] were 4.17 and 20 µg/mL (≈ 37.7 µM). Taken in the same sequence, the figures for `COc1cc(CN2CCN(C(=O)Nc3cccc(C(F)(F)F)c3)CC2)cc(O)c1OC` [Compound 50-2013] were 4.36 and 15 µg/mL (≈ 34.1 µM).
